These results are taken from US11667638B2, “4-substitued cytisine analogues” (The University of Bristol, priority 2016, dated 2023).

One assay deals with α3β4 nAChR (Homo sapiens (Human), UniProt P30926+P32297). It counts as binding. The note with it: human α3β4 in HEK 293, 0.5 nM [3H]-epibatidine; range printed after the value. On the procedure: (§1) HEK 293 cells were grown in Dulbecco's modified Eagle medium supplemented with 10% fetal bovine serum, 1% L-Glutamine, 100 units/ml penicillin G, and 100 μg/streptomycin in a humidified atmosphere containing 10% CO2. The cDNAs encoding α3 and β4 or α4 and β2 (were transfected into the HEK 293 cells at 30% confluency). The cell transfections were carried out in 100 mm Petri dishes using 30 μL of JetPEI™ (Polypus, France) (1 mg/ml, pH 7.2) and 3 μg of each cDNA. After 24 h transfection, the cells were collected, washed with PBS by centrifugation, and used for binding analysis.
Chain of α3β4 nAChR (P32297 32-505 limits assumed): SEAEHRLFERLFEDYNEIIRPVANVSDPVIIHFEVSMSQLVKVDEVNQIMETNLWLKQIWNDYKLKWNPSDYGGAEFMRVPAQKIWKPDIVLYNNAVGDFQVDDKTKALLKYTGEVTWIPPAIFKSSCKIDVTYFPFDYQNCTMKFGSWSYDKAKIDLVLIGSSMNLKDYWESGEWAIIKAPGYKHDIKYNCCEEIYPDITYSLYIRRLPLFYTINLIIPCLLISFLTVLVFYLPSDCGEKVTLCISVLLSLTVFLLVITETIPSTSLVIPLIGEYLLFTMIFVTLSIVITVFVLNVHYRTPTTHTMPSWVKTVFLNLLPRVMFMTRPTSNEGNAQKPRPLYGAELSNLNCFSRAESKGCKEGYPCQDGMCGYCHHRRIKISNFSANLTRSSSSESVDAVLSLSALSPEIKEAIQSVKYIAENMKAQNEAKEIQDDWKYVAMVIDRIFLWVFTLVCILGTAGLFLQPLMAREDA
Chain of α3β4 nAChR (P30926 22-498 limits assumed): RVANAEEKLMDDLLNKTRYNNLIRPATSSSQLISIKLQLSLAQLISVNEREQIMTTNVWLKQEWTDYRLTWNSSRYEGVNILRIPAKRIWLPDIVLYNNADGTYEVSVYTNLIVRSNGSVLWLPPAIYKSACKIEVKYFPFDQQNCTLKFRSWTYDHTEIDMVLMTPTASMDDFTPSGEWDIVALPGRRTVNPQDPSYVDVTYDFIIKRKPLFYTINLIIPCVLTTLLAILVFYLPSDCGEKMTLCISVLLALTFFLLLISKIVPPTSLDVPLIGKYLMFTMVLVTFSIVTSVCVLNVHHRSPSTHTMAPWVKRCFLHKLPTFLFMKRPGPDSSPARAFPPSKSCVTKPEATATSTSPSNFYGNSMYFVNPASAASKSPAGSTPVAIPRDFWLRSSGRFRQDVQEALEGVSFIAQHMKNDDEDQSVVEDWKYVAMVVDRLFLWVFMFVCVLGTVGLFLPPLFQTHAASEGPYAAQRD
(§2) [^3H]-epibatidine saturation binding experiments to HEK transfected α3β4 or α4β2 receptors were performed by means of overnight incubation at 4° C. at concentrations ranging from 0.005 to 1 nM in a buffer containing 50 mM Tris-HCl, pH 7, 150 mM NaCl, 5 mM KCl, 1 mM MgCl2, 2.5 mM CaCl2 and 2 mg/ml BSA, in the presence (aspecific binding) or absence (total binding) of 100 nM cold epibatidine. Specific ligand binding was defined as total binding minus the binding in the presence of 100 nM cold epibatidine.
(§3) After incubation, the membranes of HEK cells transfected with α4β2* or α3β4 subtypes were washed by filtration on GFC filters with ice-cold PBS. The GFC filters were pre-soaked in polyethylenimine and filtered through an harvester apparatus. [^3H]-epibatidine binding was determined by means of liquid scintillation counting in a beta counter.
(§4) The ligand binding data were analyzed by means of nonlinear regression using Prism version 5 (GraphPad Software, Inc., La Jolla, Calif.). The Ki values were calculated from the experimental IC50 values using the Cheng-Prusoff equation for a single population of competitive sites: Ki=IC50/[1+(L/Kd)], where L is the concentration of radioligand used in each experiment and the Kd values were determined by saturation binding experiment. All of the assays were performed in duplicate and repeated at least two-three times.

For the next assay, the target named is α4β2 nAChR (Homo sapiens (Human), UniProt P17787+P43681). It is filed as binding. The note with it: for Ratio α3β4/α4β2: ratio of Ki values. The method, then: as §1, §2, §3, §4
Chain of α4β2 nAChR (P43681 29-627 limits assumed): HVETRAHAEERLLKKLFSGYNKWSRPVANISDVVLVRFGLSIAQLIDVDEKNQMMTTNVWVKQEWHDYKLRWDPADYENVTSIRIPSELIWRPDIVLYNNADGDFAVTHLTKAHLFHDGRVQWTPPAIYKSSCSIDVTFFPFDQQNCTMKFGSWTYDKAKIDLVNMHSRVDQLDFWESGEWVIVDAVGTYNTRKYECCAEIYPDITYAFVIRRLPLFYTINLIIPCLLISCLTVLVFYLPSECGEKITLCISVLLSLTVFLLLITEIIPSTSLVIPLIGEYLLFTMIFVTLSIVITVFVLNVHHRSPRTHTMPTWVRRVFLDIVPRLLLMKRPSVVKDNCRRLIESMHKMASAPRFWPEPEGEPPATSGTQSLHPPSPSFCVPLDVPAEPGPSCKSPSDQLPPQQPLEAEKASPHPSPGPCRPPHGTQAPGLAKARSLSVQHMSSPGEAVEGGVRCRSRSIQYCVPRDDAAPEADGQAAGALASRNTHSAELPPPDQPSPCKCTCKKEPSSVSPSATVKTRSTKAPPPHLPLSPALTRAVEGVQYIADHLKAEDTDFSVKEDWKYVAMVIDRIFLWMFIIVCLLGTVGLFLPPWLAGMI
Chain of α4β2 nAChR (P17787 26-502 limits assumed): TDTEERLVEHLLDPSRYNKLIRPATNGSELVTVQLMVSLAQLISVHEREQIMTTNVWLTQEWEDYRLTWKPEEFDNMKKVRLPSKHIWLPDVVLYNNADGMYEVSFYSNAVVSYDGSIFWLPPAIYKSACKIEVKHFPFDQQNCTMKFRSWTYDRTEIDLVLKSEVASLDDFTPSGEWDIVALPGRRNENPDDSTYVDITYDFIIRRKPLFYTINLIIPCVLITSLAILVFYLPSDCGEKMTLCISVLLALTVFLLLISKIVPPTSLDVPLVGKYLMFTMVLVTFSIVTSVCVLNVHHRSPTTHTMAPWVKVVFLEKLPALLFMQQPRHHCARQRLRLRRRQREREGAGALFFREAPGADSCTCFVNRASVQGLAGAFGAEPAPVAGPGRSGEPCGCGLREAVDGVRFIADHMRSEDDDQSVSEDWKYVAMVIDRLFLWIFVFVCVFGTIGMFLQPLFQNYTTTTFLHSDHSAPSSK
The target of the next assay is Rat α7 (Rattus norvegicus (Rat), UniProt Q05941). It counts as binding. The conditions noted are these: range printed after the value. On the procedure: as §4
Chain of Rat α7 (Q05941 23-502 limits assumed): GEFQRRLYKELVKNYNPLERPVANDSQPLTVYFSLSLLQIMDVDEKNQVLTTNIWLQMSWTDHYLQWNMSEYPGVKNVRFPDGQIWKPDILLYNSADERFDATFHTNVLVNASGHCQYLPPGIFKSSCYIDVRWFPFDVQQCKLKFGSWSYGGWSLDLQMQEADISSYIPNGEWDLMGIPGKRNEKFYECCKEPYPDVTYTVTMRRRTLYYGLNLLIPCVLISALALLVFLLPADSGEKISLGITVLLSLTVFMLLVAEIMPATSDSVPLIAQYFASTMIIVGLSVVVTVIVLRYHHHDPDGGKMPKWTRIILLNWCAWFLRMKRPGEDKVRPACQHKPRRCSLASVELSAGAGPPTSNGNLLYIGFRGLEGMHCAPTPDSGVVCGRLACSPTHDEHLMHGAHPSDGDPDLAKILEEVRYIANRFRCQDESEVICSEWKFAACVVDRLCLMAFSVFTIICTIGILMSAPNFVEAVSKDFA
A further assay deals with Human α7 (Homo sapiens (Human), UniProt P36544). It counts as binding. The note with it: read-out: Human α7 K(i).
Chain of Human α7 (P36544 23-502 limits assumed): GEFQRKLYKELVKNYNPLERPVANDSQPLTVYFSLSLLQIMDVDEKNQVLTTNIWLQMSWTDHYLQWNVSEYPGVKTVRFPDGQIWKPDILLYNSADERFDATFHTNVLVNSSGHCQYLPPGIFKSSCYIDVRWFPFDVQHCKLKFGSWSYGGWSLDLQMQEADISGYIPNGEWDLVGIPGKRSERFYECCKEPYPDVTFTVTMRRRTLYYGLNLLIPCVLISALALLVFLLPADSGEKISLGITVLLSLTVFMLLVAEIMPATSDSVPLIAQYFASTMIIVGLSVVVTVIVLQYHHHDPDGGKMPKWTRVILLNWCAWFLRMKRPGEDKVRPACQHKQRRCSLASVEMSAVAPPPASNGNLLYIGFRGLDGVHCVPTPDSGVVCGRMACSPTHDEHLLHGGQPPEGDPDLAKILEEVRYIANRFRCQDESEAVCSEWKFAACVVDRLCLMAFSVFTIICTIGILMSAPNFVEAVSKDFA
The next assay addresses (α4)3(β2)2 nAChRs (Homo sapiens (Human), UniProt P17787+P43681). As to the kind of experiment: Maximal gating efficacy on (α4)3(β2)2 nAChRs in Xenopus oocytes, two electrode voltage clamp. It counts as cell-based. The method, then:
(§5) Compounds of the invention were tested for effects on the function of human α4β2, α3β4 and α7 nicotinic acetylcholine receptors (nAChRs) expressed heterologously in Xenopus oocytes. […] Expression in oocytes was obtained as follows: pCI (Promega, UK) plasmid containing human α4, β2, β4 or α7 complementary DNA were injected as previously described (Moroni et al., 2006). To express (α4)3(β2)2 nACh receptors, a mixture of 10α4:1β2 cDNAs was injected into the nucleus of oocytes, whereas for (α4)2(β2)3 receptors the cDNA ratio injected was 1α4:10β2.
(§6) Functional studies: Recordings were performed manually using a Geneclamp amplifier (Molecular Devices, USA) or using an automated HiClamp system. In both cases the oocytes were impaled with two electrodes filled with 3 M KCl and the cells were held at −60 mV throughout the experiments.
(§7) Oocyte isolation and two-electrode voltage-clamp recordings on oocytes were carried out as previously described (Moroni et al., 2006; Carbone et al., 2009). […] A minimum interval of 5 min was allowed between agonist applications to ensure reproducible recordings. Oocytes were exposed to increasing concentrations of the compounds until no further increases in the response amplitude were obtained. This concentration was taken as the concentration that causes maximal responses on the receptors tested. The data summarised in Tables 1-4 were obtained from at least 5 experiments carried out on oocytes obtained from at least three different donors.
Maximal gating efficacy of the compounds: The concentration of the compounds of the invention causing maximal activation of the (α4)3(β2)2 nAChRs expressed heterologously in Xenopus oocytes was determined using two electrode voltage clamping.

The target of the next assay is (α4)2(β2)3 nAChRs (Homo sapiens (Human), UniProt P17787+P43681). As to the kind of experiment: Maximal gating efficacy on (α4)2(β2)3 nAChRs in Xenopus oocytes, two electrode voltage clamp. It is filed as cell-based. On the procedure: as §5, §6, §7
Chain of (α4)2(β2)3 nAChRs (P43681 29-627): as the sequence (P43681 29-627 limits assumed) above
Chain of (α4)2(β2)3 nAChRs (P17787 26-502): as the sequence (P17787 26-502 limits assumed) above
Maximal gating efficacy of compounds on (α4)2(β2)3 receptors (high sensitivity receptors): The concentration of the compounds causing maximal activation of the (α4)2(β2)3 nAChRs expressed heterologously in Xenopus oocytes was determined using two electrode voltage clamping.
A general note: Two-electrode voltage clamp holds a large cell at a set potential and records current.

The target in the next assay is α3β4 nAChRs (Homo sapiens (Human), UniProt P30926+P32297). As to the kind of experiment: Maximal gating efficacy on α3β4 nAChRs in Xenopus oocytes, two electrode voltage clamp. It counts as cell-based. The note with it: maximal current relative to 1 mM ACh. The method, then:
as §5, §6, §7
Maximal gating efficacy of the compounds on α3β4 nAChRs: The concentration of the compounds causing maximal activation of α3β4 nAChRs expressed heterologously in Xenopus oocytes was determined using two electrode voltage clamping.

The next assay addresses α7 nAChRs (Homo sapiens (Human), UniProt P36544). It counts as cell-based. The note with it: compounds at 100 μM, relative to 1 mM ACh. The method, then:
as §5, §6, §7

[1] abbreviates: (α4)3(β2)2, low sensitivity stoichiometry, maximal current relative to 1 mM ACh.
[2] abbreviates: (α4)2(β2)3, high sensitivity receptors, maximal current relative to 1 mM ACh.

Where two headings read alike, the source gives them in different places.

Chain of α3β4 nAChRs (P32297 32-505): as the sequence (P32297 32-505 limits assumed) above
Chain of α3β4 nAChRs (P30926 22-498): as the sequence (P30926 22-498 limits assumed) above
Chain of α7 nAChRs (P36544 23-502): as the sequence (P36544 23-502 limits assumed) above
Chain of (α4)3(β2)2 nAChRs (P43681 29-627): as the sequence (P43681 29-627 limits assumed) above
Chain of (α4)3(β2)2 nAChRs (P17787 26-502): as the sequence (P17787 26-502 limits assumed) above

For the compound `O=c1cccc2n1C[C@@H]1CNC[C@H]2C1` [Cytisine, cytisine], the Ki came to 103 nM on α3β4 nAChR; 1.27 nM on α4β2 nAChR (human α4β2 in HEK 293, 0.25 nM [3H]-epibatidine, range printed after the value); 662 nM at Rat α7; 691 nM at Human α7. For the same compound, the “Ratio α3β4/α4β2” value at α4β2 nAChR is listed as 81.1. The “Relative efficacy (ACh)” value at (α4)3(β2)2 nAChRs (setting [1]) came to 0.19 ± 0.07; at (α4)2(β2)3 nAChRs (setting [2]), 0.02 ± 0.001; at α3β4 nAChRs, 0.54 ± 0.01.

On to `Cl.O=c1cc(-c2c(F)c(F)c(F)c(F)c2F)cc2n1CC1CNC[C@@H]2C1` (single isomer, unassigned; (-)) [Compound 75, (−)4-(Perfluorophenyl)cytisine], for which the “Ratio α3β4/α4β2” value at α4β2 nAChR is listed as 8.1. In addition, the “Relative efficacy (ACh)” value is reported as 0.011 ± 0.010 on (α4)3(β2)2 nAChRs (setting [1]), 0.050 ± 0.071 at (α4)2(β2)3 nAChRs (setting [2]), 0.120 ± 0.039 at α3β4 nAChRs and 0.0007 ± 0.0006 on α7 nAChRs.

With `O=c1cc(-c2ccncc2)cc2n1CC1CNC[C@@H]2C1` (single isomer, unassigned; (-)) [Compound 103, (−)4-(4-Pyridinyl)cytisine], the “Ratio α3β4/α4β2” value on α4β2 nAChR amounted to 859.6. Moreover, the “Relative efficacy (ACh)” value worked out at 0.023 ± 0.006 on (α4)3(β2)2 nAChRs (setting [1]), 0.0067 ± 0.0006 on (α4)2(β2)3 nAChRs (setting [2]), 0.016 ± 0.010 at α3β4 nAChRs and 0.07 ± 0.009 at α7 nAChRs.

For the compound `O=c1cc(-c2ccccn2)cc2n1CC1CNC[C@@H]2C1` (single isomer, unassigned; (-)) [Compound 101, (−)4-(2-Pyridinyl)cytisine], the “Ratio α3β4/α4β2” value on α4β2 nAChR is listed as 1575.0. Further, the “Relative efficacy (ACh)” value at (α4)3(β2)2 nAChRs (setting [1]) was 0.009 ± 0.008; on (α4)2(β2)3 nAChRs (setting [2]), 0.0001 ± 0.00008; at α3β4 nAChRs it was 0.066 ± 0.056; at α7 nAChRs, 0.16 ± 0.03.

Take `Cc1ccc(-c2cc3n(c(=O)c2)CC2CNC[C@@H]3C2)cc1` (single isomer, unassigned; (+)) [Compound 73, (+)4-p-Tolylcytisine]: the “Ratio α3β4/α4β2” value at α4β2 nAChR was found to be 161.7. In addition, the “Relative efficacy (ACh)” value at (α4)3(β2)2 nAChRs is 0.017 ± 0.019; at (α4)2(β2)3 nAChRs, 0.030 ± 0.013; at α3β4 nAChRs, 0.076 ± 0.093; on α7 nAChRs it was 0.0027 ± 0.0021.
